Test results from patent US20210220367A1, “INHALABLE FORMULATION OF A SOLUTION CONTAINING GLYCOPYRROLATE AND OLODATEROL HYDROCHLORIDE” (priority 2020, published 2021).

Test: Aerodynamic particle size distribution, Next Generation Pharmaceutical Impactor (NGI)
Type: physicochemical
Settings: sample 2 (GB 1.13 mg/ml; pH 3.0), soft mist inhaler, NGI 30 L/minute, RH 90%, HPLC per active
Experimental: The aerodynamic particle size distribution was determined using a Next Generation Pharmaceutical Impactor (NGI). The soft mist inhaler was held close to the NGI inlet until no aerosol was visible. The flow rate of the NGI was set to 30 L/minute and was operated under ambient temperature and a relative humidity (RH) of 90%.
The solution of sample 2 was discharged into the NGI. Fractions of the dose were deposited at different stages of the NGI, in accordance with the particle size of the fraction. Each fraction was washed from the stage and analyzed using HPLC.
The particle size distribution was expressed in terms of mass median aerodynamic diameter (MMAD) and Geometric Standard Deviation (GSD). […] The sample is sample 2 as described in Example 4 (GB 1.13 mg/ml; pH 3.0). The aerodynamic particle size distribution of sample 2 was investigated by means of the original research device of TB-OH and a new generation of cascade impactor.

Molecule	GSD	MMAD (μm)
COc1ccc(CC(C)(C)NC[C@H](O)c2cc(O)cc3c2OCC(=O)N3)cc1.Cl [Olodaterol hydrochloride, 2H-1,4-Benzoxazin-3H(4H)-one, 6-hydroxy-8-[(1R)-1-hydroxy-2-[[2-(4-methoxyphenyl)-1,1-dimethylethyl]-amino]ethyl], monohydrochloride]	1.79	4.01 μm
(3RS)-3-[(2SR)-(2-cyclopentyl-2-hydroxy-2-penylacetyl)oxy]-1,1-dimethlypyrrolidinium bromide [Glycopyrrolate]	1.77	4.05 μm
